Patent US10206907B2, “Compounds useful for the treatment of degenerative and inflammatory diseases” (GALAPAGOS NV, priority 2008, dated 2019)

How the values were obtained:
[1] = target: Recombinant human JAK2 catalytic domain (Homo sapiens (Human), UniProt O60674); assay: JAK2 inhibition assay; assay type: biochemical; conditions: semi-quantitative score
Method: After 90 min at 30° C., reactions were stopped by adding of 25 μL/well of 150 mM phosphoric acid. […] Plates were washed 6 times with 300 μL per well of a 75 mM phosphoric acid solution and the bottom of the plates was sealed. 40 μL/well of Microscint-20 was added, the top of the plates was sealed and readout was performed using the Topcount (Perkin Elmer). Kinase activity was calculated by subtracting counts per minute (cpm) obtained in the presence of a positive control inhibitor (10 μM staurosporine) from cpm obtained in the presence of vehicle. The ability of a test compound to inhibit this activity was determined as: Percentage inhibition=((cpm determined for sample with test compound present−cpm determined for sample with positive control inhibitor) divided by (cpm determined in the presence of vehicle−cpm determined for sample with positive control inhibitor))*100%.
Dose dilution series were prepared for the compounds enabling the testing of dose-response effects in the JAK2 assay and the calculation of the IC50 for each compound.

[2] = system: JAK-STAT signalling in HeLa cells; assay: JAK-STAT signalling assay (OSM-triggered pSTAT1(2)-luciferase reporter in HeLa cells); assay type: cell-based; conditions: Homo sapiens; HeLa cells, OSM-triggered pSTAT1(2)-luciferase reporter; read-out: STAT signalling EC50
Method: HeLa cells were maintained in Dulbecco's Modified Eagle's Medium (DMEM) containing 10% heat inactivated fetal calf serum, 100 U/mL penicillin and 100 μg/mL streptomycin. HeLa cells were used at 70% confluence for transfection. 20,000 cells in 87 μL cell culture medium were transiently transfected with 40 ng pSTAT1(2)-luciferase reporter (Panomics), 8 ng of LacZ reporter as internal control reporter and 52 ng of pBSK using 0.32 μL Jet-PEI (Polyplus) as transfection reagent per well in 96-well plate format. After overnight incubation at 37° C., 10% CO2, transfection medium was removed.
40 μL of cell lysate was used to read β-galactosidase activity by adding 180 μL βGal solution (30 μl ONPG 4 mg/mL+150 μL β-Galactosidase buffer (0.06 M Na2HPO4, 0.04 M NaH2PO4, 1 mM MgCl2)) for 20 min.
Luciferase activity was measured using 40 μL cell lysate plus 40 μl of Steadylite® as described by the manufacturer (Perkin Elmer), on the Envision (Perkin Elmer).
The positive and negative controls were used to calculate z’ and ‘percent inhibition’ (PIN) values.
PIN values were plotted for compounds tested in dose-response and EC50 values were derived.

[3] = target: Recombinant human JAK1 catalytic domain (Homo sapiens (Human), UniProt P23458); assay: JAK1 inhibition assay; assay type: biochemical; conditions: semi-quantitative score
Summary of the method: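 Radiometric assay read by scintillation counting after phosphoric-acid washes. Percent inhibition calculated from cpm relative to vehicle and 10 μM staurosporine control. IC50 derived from compound dose-dilution series.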

Recombinant human JAK1 catalytic domain, sequence (P23458 850-1154): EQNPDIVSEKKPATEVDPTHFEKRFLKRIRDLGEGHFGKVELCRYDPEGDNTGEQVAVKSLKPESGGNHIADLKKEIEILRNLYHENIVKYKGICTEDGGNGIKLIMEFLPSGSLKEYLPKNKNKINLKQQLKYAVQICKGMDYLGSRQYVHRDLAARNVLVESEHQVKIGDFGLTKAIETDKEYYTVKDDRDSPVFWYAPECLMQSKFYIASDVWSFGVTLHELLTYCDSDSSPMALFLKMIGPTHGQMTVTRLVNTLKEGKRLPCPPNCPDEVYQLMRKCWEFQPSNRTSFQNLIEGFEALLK
Recombinant human JAK2 catalytic domain, sequence (O60674 808-1132): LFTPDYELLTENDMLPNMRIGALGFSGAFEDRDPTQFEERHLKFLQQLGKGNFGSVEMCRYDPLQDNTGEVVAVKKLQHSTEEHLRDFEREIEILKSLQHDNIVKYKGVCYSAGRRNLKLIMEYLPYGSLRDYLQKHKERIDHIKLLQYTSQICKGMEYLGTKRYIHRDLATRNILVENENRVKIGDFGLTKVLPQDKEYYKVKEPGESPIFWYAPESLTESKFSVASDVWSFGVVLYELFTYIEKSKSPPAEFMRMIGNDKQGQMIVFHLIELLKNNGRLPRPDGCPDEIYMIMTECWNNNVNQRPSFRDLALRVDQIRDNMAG

Row | IC50 [1] [nM] | EC50 [2] [nM] | IC50 [3] [nM] | Compound
1 | 501 to 1000 | > 1000 | 101 to 500 | O=C(Nc1nc2cccc(-c3cccc(OCc4ccccc4)c3)n2n1)C1CC1 [Compound 14, N-(5-(3-(benzyloxy)phenyl)-[1,2,4]triazolo[1,5-a]pyridin-2-yl)cyclopropanecarboxamide]
2 | 501 to 1000 | 501 to 1000 | 101 to 500 | O=C(Nc1nc2cccc(-c3ccc(-c4cccs4)cc3)n2n1)C1CC1 [Compound 20, N-(5-(4-(thiophen-2-yl)phenyl)-[1,2,4]triazolo[1,5-a]pyridin-2-yl)cyclopropanecarboxamide]
3 | 101 to 500 | > 1000 | < 100 | N#CC1CCN(Cc2ccc(-c3cccc4nc(NC(=O)C5CC5)nn34)cc2)CC1 [Compound 232, Cyclopropanecarboxylic acid {5-[4-(4-cyano-piperidin-1-ylmethyl)-phenyl]-[1,2,4]triazolo[1,5-a]pyridin-2-yl}-amide]
4 | 101 to 500 | > 1000 | < 100 | CN1CCN(c2ccc(NCc3ccc(-c4cccc5nc(NC(=O)C6CC6)nn45)cc3)cn2)CC1 [Compound 235, Cyclopropanecarboxylic acid [5-(4-{[6-(4-methyl-piperazin-1-yl)-pyridin-3-ylamino]-methyl}-phenyl)-[1,2,4]triazolo[1,5-a]pyridin-2-yl]-amide]
5 | 101 to 500 | > 1000 | < 100 | N#Cc1ccc(-c2ccc(-c3cccc4nc(NC(=O)C5CC5)nn34)cc2)cn1 [Compound 239, Cyclopropanecarboxylic Acid {5-[4-(6-cyano-pyridin-3-yl)-phenyl]-[1,2,4]triazolo[1,5-a]pyridin-2-yl}-amide]
6 |  | > 1000 | < 100 | Cc1ccc(C(N)=O)cc1NCc1ccc(-c2cccc3nc(NC(=O)C4CC4)nn23)cc1 [Compound 249]
7 |  | > 1000 | < 100 | O=C(NCc1ccc(-c2cccc3nc(NC(=O)C4CC4)nn23)cc1)C1CCC1 [Compound 268, Cyclobutanecarboxylic acid 4-[2-(cyclopropanecarbonyl-amino)-[1,2,4]triazolo[1,5-a]pyridin-5-yl]-benzylamide]
8 | > 1000 | > 1000 | 101 to 500 | CN(C)C1CCCN(C(=O)c2ccc(-c3cccc4nc(NC(=O)C5CC5)nn34)cc2)C1 (centres unmarked) [Compound 269, Cyclopropanecarboxylic acid {5-[4-(3-dimethylamino-piperidine-1-carbonyl)-phenyl]-[1,2,4]triazolo[1,5-a]pyridin-2-yl}-amide]
9 | 501 to 1000 |  | 101 to 500 | CC(=O)NC1CCCN(C(=O)c2ccc(-c3cccc4nc(NC(=O)C5CC5)nn34)cc2)C1 (centres unmarked) [Compound 296, Cyclopropanecarboxylic acid {5-[4-(3-acetylamino-piperidine-1-carbonyl)-phenyl]-[1,2,4]triazolo[1,5-a]pyridin-2-yl}-amide]
10 | > 1000 |  | > 1000 | CN(C)CC1CN(Cc2ccc(-c3cccc4nc(NC(=O)C5CC5)nn34)cc2)C1 [Compound 298, Cyclopropanecarboxylic acid {5-[4-(3-dimethylaminomethyl-azetidin-1-ylmethyl)-phenyl]-[1,2,4]triazolo[1,5-a]pyridin-2-yl}-amide]
11 | > 1000 |  | 501 to 1000 | CN(C)C(=O)C1CN(Cc2ccc(-c3cccc4nc(NC(=O)C5CC5)nn34)cc2)C1 [Compound 299, 1-{4-[2-(Cyclopropanecarbonyl-amino)-[1,2,4]triazolo[1,5-a]pyridin-5-yl]-benzyl}-azetidine-3-carboxylic acid dimethylamide]
12 | > 1000 |  | > 1000 | O=C(Nc1nc2cccc(-c3ccc(CN4CC(N5CCOCC5)C4)cc3)n2n1)C1CC1 [Compound 300, Cyclopropanecarboxylic acid {5-[4-(3-morpholin-4-yl-azetidin-1-ylmethyl)-phenyl]-[1,2,4]triazolo[1,5-a]pyridin-2-yl}-amide]
13 | > 1000 |  | 101 to 500 | O=C(Nc1nc2cccc(-c3ccc(CN4CC[C@H](O)C4)cc3)n2n1)C1CC1 [Compound 305, Cyclopropanecarboxylic acid {5-[4-((S)-3-hydroxy-pyrrolidin-1-ylmethyl)-phenyl]-[1,2,4]triazolo[1,5-a]pyridin-2-yl}-amide]
14 | > 1000 |  | 101 to 500 | O=C(Nc1nc2cccc(-c3ccc(CN4CC[C@@H](O)C4)cc3)n2n1)C1CC1 [Compound 307, Cyclopropanecarboxylic acid {5-[4-((R)-3-hydroxy-pyrrolidin-1-ylmethyl)-phenyl]-[1,2,4]triazolo[1,5-a]pyridin-2-yl}-amide]
15 | > 1000 |  | 101 to 500 | CN1CCN(C(=O)NCc2ccc(-c3cccc4nc(NC(=O)C5CC5)nn34)cc2)CC1 [Compound 308, 4-Methyl-piperazine-1-carboxylic acid 4-[2-(cyclopropanecarbonyl-amino)-[1,2,4]triazolo[1,5-a]pyridin-5-yl]-benzylamide]
16 | 501 to 1000 |  | 101 to 500 | O=C(Nc1nc2cccc(-c3ccc(CNC(=O)N4CCOCC4)cc3)n2n1)C1CC1 [Compound 309, Morpholine-4-carboxylic acid 4-[2-(cyclopropanecarbonyl-amino)-[1,2,4]triazolo[1,5-a]pyridin-5-yl]-benzylamide]
17 | 101 to 500 |  | 101 to 500 | O=C1CN(Cc2ccc(-c3cccc4nc(NC(=O)C5CC5)nn34)cc2)CCN1 [Compound 311, Cyclopropanecarboxylic acid {5-[4-(3-oxo-piperazin-1-ylmethyl)-phenyl]-[1,2,4]triazolo[1,5-a]pyridin-2-yl}-amide]
18 | 101 to 500 |  | 101 to 500 | O=C(Nc1nc2cccc(-c3ccc(CNC4CC4)cc3)n2n1)C1CC1 [Compound 312, Cyclopropanecarboxylic acid [5-(4-cyclopropylaminomethyl-phenyl)-[1,2,4]triazolo[1,5-a]pyridin-2-yl]-amide]
19 | > 1000 |  | 101 to 500 | CC1(C)CN(Cc2ccc(-c3cccc4nc(NC(=O)C5CC5)nn34)cc2)C1 [Compound 314, Cyclopropanecarboxylic acid {5-[4-(3,3-dimethyl-azetidin-1-ylmethyl)-phenyl]-[1,2,4]triazolo[1,5-a]pyridin-2-yl}-amide]
20 | 101 to 500 |  | 101 to 500 | O=C(Nc1nc2cccc(-c3ccc(CN4CC(F)(F)C4)cc3)n2n1)C1CC1 [Compound 315, Cyclopropanecarboxylic acid {5-[4-(3,3-difluoro-azetidin-1-ylmethyl)-phenyl]-[1,2,4]triazolo[1,5-a]pyridin-2-yl}-amide]
21 | 101 to 500 |  | 101 to 500 | O=C(Nc1nc2cccc(-c3ccc(CC(=O)N4CCC4)cc3)n2n1)C1CC1 [Compound 318, Cyclopropanecarboxylic acid {5-[4-(2-azetidin-1-yl-2-oxo-ethyl)-phenyl]-[1,2,4]triazolo[1,5-a]pyridin-2-yl}-amide]
22 | 101 to 500 |  | 101 to 500 | CC1CC(C)CN(C(=O)Cc2ccc(-c3cccc4nc(NC(=O)C5CC5)nn34)cc2)C1 (centres unmarked) [Compound 320, Cyclopropanecarboxylic acid (5-{4-[2-(3,5-dimethyl-piperidin-1-yl)-2-oxo-ethyl]-phenyl}-[1,2,4]triazolo[1,5-a]pyridin-2-yl)-amide]
23 |  | > 1000 | < 100 | COC1CN(C(=O)Cc2ccc(-c3cccc4nc(NC(=O)C5CC5)nn34)cc2)C1 [Compound 321, Cyclopropanecarboxylic acid (5-{4-[2-(3-methoxy-azetidin-1-yl)-2-oxo-ethyl]-phenyl} - [1,2,4]triazolo[1,5-a]pyridin-2 yl)-amide]
24 | > 1000 |  | > 1000 | CC(=O)NC1CN(C(=O)Cc2ccc(-c3cccc4nc(NC(=O)C5CC5)nn34)cc2)C1 [Compound 322, Cyclopropanecarboxylic acid (5-{4-[2-(3-acetylamino-azetidin-1-yl)-2-oxo-ethyl]-phenyl}-[1,2,4]triazolo[1,5-a]pyridin-2-yl)-amide]
25 | > 1000 |  | > 1000 | CN(C)C(=O)C1CN(C(=O)Cc2ccc(-c3cccc4nc(NC(=O)C5CC5)nn34)cc2)C1 [Compound 324, 1-(2-{4-[2-(Cyclopropanecarbonyl-amino)-[1,2,4]triazolo[1,5-a]pyridin-5-yl]-phenyl}-acetyl)-azetidine-3-carboxylic acid dimethylamide]
